The source of these data is patent publication US12589143B2, “Human anti-PD-L1 peptide vaccines and methods of their use” (priority 2019, dated 2026).

A short description of experiment [1]: Mouse antibody isotyping assay. In kind it is in vivo, Balb/c mice. As for the experimental part:
We also analyzed the different isotypes of antibodies being generated by vaccination.
Antibody isotypes (i.e. IgA, IgM, IgG1, IgG2a, IgG2b, IgG3) were determined using the Mouse Typer Isotyping Kit (BIO-RAD, Hercules, CA). Briefly, wells of a 96-well assay plate were coated with 200 ng peptide antigen in ddH2O, and incubated at 4° C. overnight. The plate was washed with washing buffer (0.05% Tween-20 and 1% horse sera in PBS). The plate was then blocked with 1% BSA in PBS at room temperature for 1 hour. 100 ul of diluted mice sera was added to each well for 2 hours and after washing the wells, 100 μl ready to use rabbit anti-mouse subclasses antibodies were added to each well respectively and incubated at room temperature for another 2 hours. The wells were washed again, 100 μl of 1/3000 dilution of goat anti-rabbit conjugated to HRP antibody (BIO-RAD, Hercules, CA) was added to each well and incubated for 1 hour at room temperature in dark. The plate was then washed and 50 μl prepared substrate solution was added to each well. The reaction was stopped with 25 μl 5% SDS stopping buffer. Absorbance at 415 nm was determined using an ELISA plate reader. Dilutions of each sera samples were determined by the ELISA titers shown in absorbance of 0.4 or higher after subtracting the background.

The next experiment relates to D2F2 WT tumor cells. Description: D2F2 WT tumor challenge in Balb/c mice. In kind it is in vivo. As for the experimental part: Balb/c mice 6-8 weeks old, were immunized with G1 and G2 mice were treated with anti-PD-1 mAb (29F.1A12) (G1) or anti-PD-L1 mAb (10F.9G2) (G2 or with MVF-PD-L1 vaccine constructs [PD-L1(92-110)(G3) PD-L1(130-147)(G4)] prior to tumor challenge. Similarly, G10, G11 and G12 are control groups and were not treated prior to tumor cell challenge. G13, G14 and G15 mice were immunized with 100 ug MVF-HER-2(266-296)+100 ug MVF-HER-2(597-626)+ISA720 per mouse for G13, 100 ug MVF-PD-1 (92-110)+100 ug MVF-HER-2(266-296)+100 ug MVF-HER-2(597-626)+ISA720 per mouse for G14 and 100 ug MVF-PD-L1 (130-147)+100 ug MVF-HER-2(266-296)+100 ug MVF-HER-2(597-626)+ISA720 per mouse for G15. The mice were immunized up to 4 times before tumor challenge. […] All the mice had been monitored at least twice per week, and the tumors were measured with calipers as data indicated.
The tumor volumes were measured by calipers and calculated by formula: (length×width2)/2. […] All the peptides immunized groups of mice are shown with less tumor burden than PBS group and mAbs treated groups as well.
G0, G1 and G2 are control groups, mice in these groups were not treated before tumor cells challenge. Following challenge with D2F2 WT tumor cells, G0 mice were treated with PBS (i.p.) twice per week start from day 2 post challenge served as negative control, G1 and G2 mice were treated with anti-PD-1 mAb (29F.1A12) or anti-PD-L1 mAb (10F.9G2), respectively. Treatment for G1 and G2 mouse groups was also started from day 2 post tumor challenge, with 100 ug administered/mouse twice a week. G1 and G2 served as positive control. […] All the mice had been monitored at least twice per week, and the tumors were measured with calipers as data indicated (FIG. 26).
Mice were immunized with designed peptides vaccines as descripted in FIG. 26, which indicated as 1Y, 2Y, 3Y and 4Y here and with 3 weeks apart. […] And the mice were monitor at least twice per week, and the tumors were measured as shown in the data figures.
The tumor volumes were measured by calipers and calculated by formula: (length×width2)/2. […]

Where no end group is shown, it is not given here.

“KLLSLIKGVIVHRLEGVEGPSLVTSEHELTCQAEGYPKAE (KLLSLIKGVIVHRLEGVEGPSLVTSEHELTCQAEGYPKAE-NH2) [PD-L1(130)]”: the “isotypes of antibodies elicited in the mice” value in experiment [1] (experiment 1 (CT26 WT)) and in experiment [1] (experiment 2 (CT26/HER-2)) was “predominantly of the IgG1 class” each time. Further, the mice survival result in the experiment with D2F2 WT tumor cells (after day 45 of tumor challenge) was “about 60%”. Also, the tumor volume result in the experiment on D2F2 WT tumor cells (day 21 and day 28) is “smaller tumor volume than PBS negative control group and both of mAbs positive control groups”.
